{
  "source": "patent US9695155B2",
  "about": "“Herbicidal substituted pyrimidinyloxy benzene compounds” (E. I. DU PONT DE NEMOURS AND COMPANY, priority 2013, dated 2017)",
  "experiment_in_all_cases": "Test F preemergence",
  "settings_in_all_cases": "21 days, scale 0 to 100",
  "key": {"[1]": {"tested_on": "crabgrass, naked", "format": "in vivo, Digitaria nuda", "description": "(§1) Seeds of plant species selected from bermudagrass (Cynodon dactylon), surinam grass (Brachiaria decumbens), large (Lg) crabgrass (Digitaria sanguinalis), crabgrass, naked (naked crabgrass, Digitaria nuda), foxtail, green (green foxtail, Setaria viridis), johnsongrass (Sorghum halepense), kochia (Kochia scoparia), morningglory (pitted morningglory, Ipomoea lacunosa), nutsedge, purple (purple nutsedge, Cyperus rotundus), ragweed (common ragweed, Ambrosia elatior), mustard, black (black mustard, Brassica nigra), guineagrass (Panicum maximum), dallisgrass (Paspalum dilatatum), barnyardgrass (Echinochloa crus-galli), sandbur (southern sandbur, Cenchrus echinatus), sowthistle (common sowthistle, Sonchus oleraceous), Italian ryegrass (Lolium multiflorum), signalgrass (broadleaf signalgrass, Brachiaria platyphylla), dayflower (Virginia (VA) dayflower, Commelina virginica), bluegrass (annual bluegrass, Poa annua), quackgrass (Elytrigia repens), mallow (common mallow, Malva sylvestris), buckwheat, wild (wild buckwheat, Polygonum convolvulus), leafy spurge (Euphorbia esula), chickweed (common chickweed, Stellaria media), wild poinsettia (Euphorbia heterophylla), and pigweed (Amaranthus retroflexus) were planted into a blend of loam soil and sand and treated preemergence with test chemicals formulated in a non-phytotoxic solvent mixture which included a surfactant.\n(§2) Treated plants and controls were maintained in a greenhouse for 21 days, after which time all species were compared to controls and visually evaluated. Plant response ratings, summarized in Table F, are based on a scale of 0 to 100 where 0 is no effect and 100 is complete control. A dash (-) response means no test result."}, "[2]": {"tested_on": "foxtail, green", "format": "in vivo, Setaria viridis", "description": "as §1, §2"}, "[3]": {"tested_on": "johnsongrass", "format": "in vivo, Sorghum halepense", "description": "as §1, §2"}, "[4]": {"tested_on": "nutsedge, purple", "format": "in vivo, Cyperus rotundus", "description": "as §1, §2"}, "[5]": {"tested_on": "guineagrass", "format": "in vivo, Panicum maximum", "description": "as §1, §2"}, "[6]": {"tested_on": "sandbur", "format": "in vivo, Cenchrus echinatus", "description": "as §1, §2"}, "[7]": {"tested_on": "dayflower", "format": "in vivo, Commelina virginica", "description": "as §1, §2"}},
  "data": [
    {"smiles": "N#Cc1cccc(Oc2ncc(Cl)cn2)c1-n1cc(C(F)(F)F)cn1", "note": "[Compound 58, 3-[(5-chloro-2-pyrimidinyl)oxy]-2-[4-(trifluoromethyl)-1H-pyrazol-1-yl]benzonitrile]", "values": [
      {"measurement": "Plant response rating, Crabgrass, Naked", "setting": "[1]; 16 g ai/ha", "value": 100},
      {"measurement": "Plant response rating, Crabgrass, Naked", "setting": "[1]; 31 g ai/ha", "value": 100},
      {"measurement": "Plant response rating, Crabgrass, Naked", "setting": "[1]; 62 g ai/ha", "value": 100},
      {"measurement": "Plant response rating, Crabgrass, Naked", "setting": "[1]; 125 g ai/ha", "value": 100},
      {"measurement": "Plant response rating, Crabgrass, Naked", "setting": "[1]; 250 g ai/ha", "value": 100},
      {"measurement": "Plant response rating, Foxtail, Green", "setting": "[2]; 16 g ai/ha", "value": 75},
      {"measurement": "Plant response rating, Foxtail, Green", "setting": "[2]; 31 g ai/ha", "value": 100},
      {"measurement": "Plant response rating, Foxtail, Green", "setting": "[2]; 62 g ai/ha", "value": 100},
      {"measurement": "Plant response rating, Foxtail, Green", "setting": "[2]; 125 g ai/ha", "value": 100},
      {"measurement": "Plant response rating, Foxtail, Green", "setting": "[2]; 250 g ai/ha", "value": 100},
      {"measurement": "Plant response rating, Johnsongrass", "setting": "[3]; 16 g ai/ha", "value": 65},
      {"measurement": "Plant response rating, Johnsongrass", "setting": "[3]; 31 g ai/ha", "value": 98},
      {"measurement": "Plant response rating, Johnsongrass", "setting": "[3]; 62 g ai/ha", "value": 100},
      {"measurement": "Plant response rating, Johnsongrass", "setting": "[3]; 125 g ai/ha", "value": 100},
      {"measurement": "Plant response rating, Johnsongrass", "setting": "[3]; 250 g ai/ha", "value": 100},
      {"measurement": "Plant response rating, Nutsedge, Purple", "setting": "[4]; 16 g ai/ha", "value": 0},
      {"measurement": "Plant response rating, Nutsedge, Purple", "setting": "[4]; 31 g ai/ha", "value": 60},
      {"measurement": "Plant response rating, Nutsedge, Purple", "setting": "[4]; 62 g ai/ha", "value": 40},
      {"measurement": "Plant response rating, Nutsedge, Purple", "setting": "[4]; 125 g ai/ha", "value": 70},
      {"measurement": "Plant response rating, Nutsedge, Purple", "setting": "[4]; 250 g ai/ha", "value": 80},
      {"measurement": "Plant response rating, Guineagrass", "setting": "[5]; 16 g ai/ha", "value": 100},
      {"measurement": "Plant response rating, Guineagrass", "setting": "[5]; 31 g ai/ha", "value": 100},
      {"measurement": "Plant response rating, Guineagrass", "setting": "[5]; 62 g ai/ha", "value": 100},
      {"measurement": "Plant response rating, Guineagrass", "setting": "[5]; 125 g ai/ha", "value": 100},
      {"measurement": "Plant response rating, Guineagrass", "setting": "[5]; 250 g ai/ha", "value": 100},
      {"measurement": "Plant response rating, Sandbur", "setting": "[6]; 16 g ai/ha", "value": 10},
      {"measurement": "Plant response rating, Sandbur", "setting": "[6]; 31 g ai/ha", "value": 35},
      {"measurement": "Plant response rating, Sandbur", "setting": "[6]; 62 g ai/ha", "value": 95},
      {"measurement": "Plant response rating, Sandbur", "setting": "[6]; 125 g ai/ha", "value": 100},
      {"measurement": "Plant response rating, Sandbur", "setting": "[6]; 250 g ai/ha", "value": 100},
      {"measurement": "Plant response rating, Dayflower, VA", "setting": "[7]; 16 g ai/ha", "value": 90},
      {"measurement": "Plant response rating, Dayflower, VA", "setting": "[7]; 31 g ai/ha", "value": 95},
      {"measurement": "Plant response rating, Dayflower, VA", "setting": "[7]; 62 g ai/ha", "value": 100},
      {"measurement": "Plant response rating, Dayflower, VA", "setting": "[7]; 125 g ai/ha", "value": 100},
      {"measurement": "Plant response rating, Dayflower, VA", "setting": "[7]; 250 g ai/ha", "value": 100}
    ]}
  ]
}
